Data on one compound can be found in patent US11691974B2, “3,9-diazaspiro[5,5]undecane compound as FLT3 and AXL inhibitors” (MEDSHINE DISCOVERY INC., priority 2018, dated 2023).

In data set [1] the test system is human biphenotypic B bone marrow mononuclear leukemia cell MV4-11 subcutaneous xenograft tumor. Description: Inhibition of MV4-11 subcutaneous xenograft tumor in vivo. Also noted: species or system nude mice. As for the experimental part:
In this assay, the anti-tumor effect of the compounds was evaluated using a nude mice model of subcutaneous xenograft tumor of human biphenotypic B bone marrow mononuclear leukemia cell MV4-11.
Human biphenotypic B bone marrow mononuclear leukemia cell MV4-11 was cultured in vitro in suspension with a RPMI1640 medium supplemented with 10% fetal bovine serum, 100 U/mL penicillin and 100 μg/mL streptomycin in a 5% CO2 cell incubator at 37° C. Routine passaging was performed twice a week. Cells in the logarithmic growth phase were collected, counted and then used for inoculation.
10×10^6 MV4-11 cells were inoculated subcutaneously on the back of the right neck of each mouse, wherein the inoculation volume was 0.2 mL, and the cell suspension was PBS plus matrigel (volume ratio 1:1). The assay of efficacy in vivo was performed on the 13th day after the cell inoculation, at which time the average tumor volume reached 181 mm^3. The mice were randomly divided into groups with 6 mice in each group, and administration to the mice started.
The diameter of the tumor was measured with vernier calipers twice a week. The formula for calculating the tumor volume is: V=0.5a×b^2, where a and b represent the long and short diameters of the tumor, respectively.
After 14 days of administration, the administration was stopped, and the rebound of the tumor was observed.

Data set [2] deals with T1, FLT3(ITD, F691L) (Homo sapiens, UniProt P36888, F691L, form not given).
T1 sequence (P36888 1-993 F691L): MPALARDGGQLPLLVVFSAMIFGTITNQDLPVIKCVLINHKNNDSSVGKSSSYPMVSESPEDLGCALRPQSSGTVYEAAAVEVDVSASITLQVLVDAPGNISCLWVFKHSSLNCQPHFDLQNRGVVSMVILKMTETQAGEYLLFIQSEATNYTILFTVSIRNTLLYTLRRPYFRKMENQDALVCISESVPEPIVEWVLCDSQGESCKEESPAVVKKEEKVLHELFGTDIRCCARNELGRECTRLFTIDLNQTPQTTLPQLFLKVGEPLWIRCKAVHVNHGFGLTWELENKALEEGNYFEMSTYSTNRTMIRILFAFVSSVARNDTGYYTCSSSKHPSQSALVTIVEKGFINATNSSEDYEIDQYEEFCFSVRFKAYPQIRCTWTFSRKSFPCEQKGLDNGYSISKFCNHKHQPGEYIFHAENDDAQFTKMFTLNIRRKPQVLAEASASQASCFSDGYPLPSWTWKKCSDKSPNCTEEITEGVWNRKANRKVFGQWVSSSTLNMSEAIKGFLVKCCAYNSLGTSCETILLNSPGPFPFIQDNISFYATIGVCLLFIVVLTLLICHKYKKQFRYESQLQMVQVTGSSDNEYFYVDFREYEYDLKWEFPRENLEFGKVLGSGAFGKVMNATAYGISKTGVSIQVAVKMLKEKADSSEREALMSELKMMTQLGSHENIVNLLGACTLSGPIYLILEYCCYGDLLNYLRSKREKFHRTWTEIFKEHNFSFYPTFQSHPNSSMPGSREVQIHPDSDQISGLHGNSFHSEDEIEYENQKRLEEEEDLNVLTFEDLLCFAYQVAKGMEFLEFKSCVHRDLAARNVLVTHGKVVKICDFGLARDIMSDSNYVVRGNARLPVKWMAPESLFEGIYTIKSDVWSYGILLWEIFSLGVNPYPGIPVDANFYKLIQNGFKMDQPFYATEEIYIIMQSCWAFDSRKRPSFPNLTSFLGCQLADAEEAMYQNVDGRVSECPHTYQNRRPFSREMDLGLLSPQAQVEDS
As to the kind of experiment: KINOMEscan Kd determination, FLT3 mutant. Format: binding. The note with it: ratio of Kd versus compound B. As for the experimental part:
The assay was carried out using KINOMEscan™ technology. The assay compounds were stored in 100% DMSO. The assay was carried out by means of 3-fold dilution and 11-point fitting. All compounds used for Kd determination were dispersed by ultrasound, then directly diluted and tested. All reactions were carried out in a 384-well polypropylene plate. Each portion has a final volume of 0.02 ml. The plate was incubated with shaking at room temperature for 1 hour, and then processed. The kinase concentration in the eluent was finally determined by qPCR method. Kd was obtained by fitting.

A short description of data set [3]: In vivo pharmacokinetic study in mice. Also noted: species or system CD-1 male mice. The following applies: male, CD-1, mouse, plasma. The protocol:
CD-1 male mice aged 7 to 10 weeks were selected. The doses for intravenous and oral administration were 1 mg/kg and 2.5 mg/kg, respectively. The mice were fasted for at least 12 hours before the administration, and resumed feeding 4 hours after the administration. The mice had free access to water throughout the assay period.
On the day of the assay, the animals in the intravenous group were administrated the corresponding compound through a single injection in the tail vein at an administration volume of 5 mL/kg; the oral group were administrated the corresponding compound through a single intragastric gavage at an administration volume of 10 mL/kg. The animals were weighed before administration, and the administration volume was calculated based on the body weight. The time for collecting samples was: 0.083 (the injection group), 0.25, 0.5, 1, 2, 4, 8, 24 h. About 30 μL of whole blood was collected from the saphenous vein at each time point to prepare plasma for concentration determination by high-performance liquid chromatography-tandem mass spectrometry (LC-MS/MS). All animals were euthanized by CO2 anesthesia after collecting the PK samples at the last time point. The plasma concentrations were processed by non-compartmental model of WinNonlin™ Version 6.3 (Pharsight, Mountain View, Calif.) pharmacokinetic software, and the pharmacokinetic parameters were calculated by the linear logarithm trapezoidal method.

The mark [4] stands for this setting: 5 mg/kg oral once a day for 14 days, then drug withdrawal.

For orientation: AUC(0-t) means the area under the concentration-time curve up to a stated or last time point. Higher therefore signals more exposure. The clearance is the rate of elimination divided by the concentration. What is called half-life is the time needed for the level to fall by half in the phase considered. A low value points to fast loss. Broadly, the bioavailability is dose-corrected exposure relative to a reference, in per cent. Read a high bioavailability as much systemic uptake. With `CCc1nc(C(N)=O)c(Nc2ccc(N3CCC4(CCN(C)CC4)CC3)c(C)c2)nc1NC1CCOCC1`, in data set [1] (5 mg/kg oral once a day), the “% Inhibition rate on day 14” value worked out at 119% and the “Average tumor volume Day 14” value amounted to 32 cubic millimeter. Moreover, in data set [1] (setting [4]), the “Average tumor volume Day 25” value worked out at 234 cubic millimeter and the “Average tumor volume Day 35” value is listed as 849 cubic millimeter. Moreover, in data set [1] (baseline at start of dosing, 5 mg/kg oral once a day group), the “Average tumor volume Day 0” value amounted to 181 cubic millimeter. Moreover, the “activity for FLT3 (ITD, F691L) higher than that of compound B” value in data set [2] was 3.6 times. In data set [3] (iv, injection 1 mg/kg), this compound had an area under the curve AUC(0-t) of 0.604 µM·h, a clearance of 48.5 mL/min/kg and a half-life of 2.4 h. The Vd in data set [3] (iv, injection 1 mg/kg, read-out: Vdss) was 8.63 L/kg. Further, in data set [3] (oral administration 2.5 mg/kg), the exposure AUC(0-t) was found to be 0.598 µM·h, the bioavailability stood at 37.3% and the half-life is 4.41 h.
